Assay [1] deals with platelet aggregation by ADP stimulation. The note with it: clopidogrel 10 mg/kg oral, ketoconazole 50 mg/kg oral 30 min before, blood 2 hours after clopidogrel. The text has this:
Fasted rats (7 weeks old, female, SD rats) were used as experimental animals.

The next assay relates to gastric acid secretion. The assay is described as follows: Correlation between enzyme activity of CYP2C19 and CYP3A4 and effect of omeprazole, 13C-CaCO3 expiration test. The note with it: ketoconazole 50 mg/kg oral 30 min before omeprazole 3 mg/kg i.v.; 13C-CaCO3 100 μmol/kg oral 2 hours after omeprazole. The format is in vivo, rats. The procedure:
Fasted rats (7 weeks old, female, SD rats) were used as experimental animals. The rats were divided into an omeprazole administration group (n=3), a ketoconazole pre-treatment group (n=3), and a control group (n=3).
Expired air was then collected. […] Expired air was then collected.
The above expired air was used as test samples, and Δ^13C (‰) was measured with a mass spectrometer for expired air analysis (ABCA: manufactured by SerCon) from the concentration of ^13CO2 excreted in the expired air.

Regarding `COC(=O)[C@H](c1ccccc1Cl)N1CCc2sccc2C1` [clopidogrel], in assay [1], the “platelet aggregation inhibitory action of clopidogrel under ketoconazole pre-treatment” value is “reduced”.

Consider `CC(=O)N1CCN(c2ccc(OCC3COC(Cn4ccnc4)(c4ccc(Cl)cc4Cl)O3)cc2)CC1` (centres unmarked) [ketoconazole], for which the “Δ13C (‰) in the expired air after 13C-CaCO3, effect of ketoconazole pre-treatment before omeprazole” value in the assay with gastric acid secretion is on record as “decreased”.

(Values after US20180003695A1, “METHOD FOR QUANTITATIVE MEASUREMENT OF GASTRIC ACIDITY USING 13C CARBONATE SALT” (priority 2010, published 2018).)
